Data published in ChEMBL document CHEMBL2073961, “Reduced hepatic uptake and intestinal excretion of organic cations in mice with a targeted disruption of the organic cation transporter 1 (Oct1 [Slc22a1]) gene” (Mol Cell Biol, 2001).

The molecules below were run against T1, Solute carrier family 22 member 1 (Mus musculus, UniProt O08966) (assay: TP_TRANSPORTER: decrease in liver concentration in Oct1 -/- mouse). Settings: in vivo.
T1 sequence (O08966 whole entry): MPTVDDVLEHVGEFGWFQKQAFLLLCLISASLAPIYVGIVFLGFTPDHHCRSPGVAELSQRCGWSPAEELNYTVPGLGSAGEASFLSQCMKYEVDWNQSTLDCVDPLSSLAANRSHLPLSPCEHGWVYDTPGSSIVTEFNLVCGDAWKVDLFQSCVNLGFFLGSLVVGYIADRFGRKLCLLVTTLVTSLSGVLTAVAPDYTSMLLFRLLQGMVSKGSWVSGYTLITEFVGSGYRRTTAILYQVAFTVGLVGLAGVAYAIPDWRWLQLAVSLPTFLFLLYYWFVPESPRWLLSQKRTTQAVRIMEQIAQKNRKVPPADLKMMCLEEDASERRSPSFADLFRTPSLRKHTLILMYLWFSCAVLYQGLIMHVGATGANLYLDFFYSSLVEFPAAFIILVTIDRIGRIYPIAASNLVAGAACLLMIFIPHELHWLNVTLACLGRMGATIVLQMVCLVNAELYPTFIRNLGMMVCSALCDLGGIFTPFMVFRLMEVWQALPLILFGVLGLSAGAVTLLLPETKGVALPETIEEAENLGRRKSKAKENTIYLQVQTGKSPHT
Format: functional, organism-based

SMILES	Activity
CC[N+](CC)(CC)CC [TETRYLAMMONIUM]	substrate [+]
N=C(N)NCc1cccc(I)c1 [IOBENGUANE]	substrate [+]
C[n+]1ccc(-c2ccccc2)cc1	substrate [+]
